Source: patent publication US8710032B2, “Inhibitors of the mevalonate pathway of Streptococcus pneumoniae” (Northwestern University, priority 2006, dated 2014)
“Also recorded” adds a separate entry of the source. Where two headings read alike, the source gives them in different places.

Experiments:
human mevalonate kinase [1] = target: T1, human mevalonate kinase (Homo sapiens, UniProt Q03426); test: DPM inhibition of human mevalonate kinase (initial rate); type: biochemical; conditions: at DPM concentrations that essentially completely inhibit the streptococcal system; [substrates]~Km
T1 construct: made in house
Experimental: (§1) The findings that mevalonate-pathway S. pneumoniae mutants cannot survive in mouse lung or serum validated this pathway as an antibiotic target in animal models. Acting on the hypothesis that the primary sequence differences of the mammalian and streptococcal MKs might produce different DPM-inhibition characteristics, the human enzyme was cloned, expressed, purified and tested for DPM inhibition. The effect of DPM on the initial rate of the human and streptococcal enzymes was assessed using samples with matched catalytic poise ([substrates]˜Km, equivalent Vm).

mevalonate kinase (MK) [2] = target: T2, mevalonate kinase (MK) (Streptococcus pneumoniae, UniProt A0A0H2UNK6); test: Equilibrium binding of DPM to MK
human mevalonate kinase [3] = target: T1, human mevalonate kinase; conditions: background; cited from earlier work
[4] = target: T3, mammalian DPM decarboxylase (Homo sapiens, UniProt P53602); conditions: cited from earlier work; for Km: substrate of mammalian DPM decarboxylase
T3 sequence (P53602 1-400): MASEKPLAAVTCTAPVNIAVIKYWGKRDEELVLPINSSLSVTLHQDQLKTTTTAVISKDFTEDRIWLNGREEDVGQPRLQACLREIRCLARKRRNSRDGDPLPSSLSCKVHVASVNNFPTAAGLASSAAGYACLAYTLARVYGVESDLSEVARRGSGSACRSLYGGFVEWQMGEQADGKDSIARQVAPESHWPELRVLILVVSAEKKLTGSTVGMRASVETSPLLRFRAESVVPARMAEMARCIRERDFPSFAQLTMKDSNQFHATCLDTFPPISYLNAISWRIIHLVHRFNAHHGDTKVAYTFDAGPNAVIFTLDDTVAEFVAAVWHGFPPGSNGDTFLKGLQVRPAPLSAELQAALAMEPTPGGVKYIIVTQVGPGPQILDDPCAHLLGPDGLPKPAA

DPM-DC [5] = target: T4, DPM-DC (Streptococcus pneumoniae, UniProt A0A0H2UNP0); test: DPM binding to DPM-DC by intrinsic fluorescence
T4 sequence (A0A0H2UNP0 1-317): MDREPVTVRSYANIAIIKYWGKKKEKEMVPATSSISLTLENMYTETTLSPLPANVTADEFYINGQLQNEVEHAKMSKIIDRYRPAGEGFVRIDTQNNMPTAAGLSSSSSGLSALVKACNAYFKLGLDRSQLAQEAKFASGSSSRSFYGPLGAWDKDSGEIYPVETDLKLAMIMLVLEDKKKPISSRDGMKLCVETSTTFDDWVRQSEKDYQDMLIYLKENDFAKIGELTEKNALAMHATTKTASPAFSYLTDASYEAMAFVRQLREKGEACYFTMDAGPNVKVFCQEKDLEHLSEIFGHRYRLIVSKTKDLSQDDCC
Experimental: FIG. 5. DPM Binding to DPM-DC. Conditions: DPM-DC (0.10 μM); MgCl2 (1.0 mM); β-Me (2.0 mM); KCl (50 mM); Glycerol (0.5% v/v); Hepes (50 mM, pH 8.0); T=25 (±2)° C.
This spectroscopic handle can be used to determine the affinities of the inhibitors described in this proposal and to explore the mechanism of DPM-DC. […] As a tool to study mechanism, the DPM-induced fluorescence changes can monitor, by stopped-flow, the progress of the binding reactions. The concentration dependencies of such measurements yield microscopic rate constants, which, in turn, provide ground and transition-state energetics for a particular step in the reaction coordinate. In favorable cases, fluorescence changes occur subsequent to binding as consequence of other structural changes that occur during the catalytic cycle—such is the case with DPM-DC. These changes can be assigned to bond-cleavage steps using by monitoring chemistry in the presteady-state by quenched-flow.

mevalonate kinase (MK) [6] = target: T2, mevalonate kinase (MK); test: Initial-rate inhibition of S. pneumoniae mevalonate kinase; type: biochemical
Experimental: Regulation of the isoprenoid biosynthetic pathway in S. pneumoniae was discovered during an attempt to enzymatically synthesize DPM from ATP and mevalonate using MK and PMK. Individually, either enzyme is capable of quantitative conversion of substrate to product. However, when the enzymes are added simultaneously, the forward reaction decelerates rapidly and little product is formed. […] Thus, this nearly pure noncompetitive inhibitor binds at a site that is physically distinct from the substrate binding sites—an allosteric site. […] The stoichiometry was confirmed by NMR titration. […] Down-regulation of this pathway is quite specific for DPM.
as §1
(§2) Several compounds were designed to inhibit DPM-DC and control cholesterol biosynthesis. In one such compound, each of the C6-methyl protons of mevalonate are replaced with fluorine (6,6,6-trifluoromevalonate, F3-mev). Given DPM inhibition of MK, and excellent inhibition of rat liver DPM-DC by F3-DPM (Ki=0.5 μM) it was hoped that F3-DPM might inhibit both MK and DPM-DC from S. pneumoniae, and, if so, be used as a bacteriostatic or bacteriocidal agent. […] Encouraged, F3-DPM was tested as an antibiotic against S. pneumoniae. To avoid the possible obstacles of phosphatase degradation of DPM and transporting a highly charged anion across the cell wall, a prodrug strategy that relies on conversion of F3-mev to F3-DPM in the cytosol was used. F3-mev conversion to F3-DPM and consequent inhibition of DPM-DC occurs in rat liver extracts. The linear and lactone forms of statins, which target an early step in the isoprenoid pathway, show widely different potencies; consequently, both forms of F3-mev were tested as inhibitors. Serial dilutions of F3-mev were added to Meuller-Hinton Broth, a horse-blood based medium, containing ˜7.5×10^7 cells of either an infectious (ATCC 49619) or non-infectious (R6) strain of S. pneumoniae. The cultures containing F3-mev were incubated for 24 hours at 35° C. and plated to assess viability. The linear form of F3-mev had little effect; confluent growth was observed on all plates; in contrast, the lactone is clearly a bacteriocide—less than 0.0001% of either strain survived at 100-200 μg/ml of the lactone. […]

mevalonate kinase (MK) [7] = target: T2, mevalonate kinase (MK); conditions: read-out: Ki (binding to the allosteric site of mevalonate kinase); S. pneumoniae MK; background, Andreassi et al. 2004; cited from earlier work
DPM-DC [8] = target: DPM-DC (Streptococcus pneumoniae, UniProt Q9FD53); test: Inhibition of S. pneumoniae DPM-DC; type: biochemical; conditions: DPM-DC from S. pneumoniae
rat liver DPM-DC = target: T5, rat liver DPM-DC (Rattus norvegicus, UniProt Q62967); conditions: cited from earlier work
T5 construct: host or cells: rat liver
T5 sequence (Q62967 1-401): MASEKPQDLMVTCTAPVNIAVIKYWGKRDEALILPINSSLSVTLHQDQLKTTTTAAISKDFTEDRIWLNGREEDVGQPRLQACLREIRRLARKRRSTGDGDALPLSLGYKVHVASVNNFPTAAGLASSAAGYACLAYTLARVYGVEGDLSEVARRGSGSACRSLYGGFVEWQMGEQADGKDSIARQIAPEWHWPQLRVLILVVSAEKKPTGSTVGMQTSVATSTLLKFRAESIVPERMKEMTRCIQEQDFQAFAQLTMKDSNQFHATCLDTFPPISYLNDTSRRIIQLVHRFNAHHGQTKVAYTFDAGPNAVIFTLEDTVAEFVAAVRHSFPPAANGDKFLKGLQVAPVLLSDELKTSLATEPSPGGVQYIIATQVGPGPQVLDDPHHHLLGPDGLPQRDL

[9] = system: S. pneumoniae (ATCC 49619, R6); test: Antibiotic test: broth culture, plated to assess viability; type: cell-based, Streptococcus pneumoniae; conditions: serial dilutions; 24 hours at 35° C.; ATCC 49619 or R6
Experimental: as §2, with “viability.” for “viability. The linear form of F3-mev had little effect; confluent growth was observed on all plates; in contrast, the lactone is clearly a bacteriocide—less than 0.0001% of either strain survived at 100-200 μg/ml of the lactone.”

mevalonate kinase = target: T6, mevalonate kinase (Streptococcus pneumoniae, UniProt A0A0H2UNK6); test: Initial substrate results of analogues with mevalonate kinase (FIG. 8); type: biochemical; conditions: [ATP]=0.85 mM
T6 sequence (A0A0H2UNK6 1-292): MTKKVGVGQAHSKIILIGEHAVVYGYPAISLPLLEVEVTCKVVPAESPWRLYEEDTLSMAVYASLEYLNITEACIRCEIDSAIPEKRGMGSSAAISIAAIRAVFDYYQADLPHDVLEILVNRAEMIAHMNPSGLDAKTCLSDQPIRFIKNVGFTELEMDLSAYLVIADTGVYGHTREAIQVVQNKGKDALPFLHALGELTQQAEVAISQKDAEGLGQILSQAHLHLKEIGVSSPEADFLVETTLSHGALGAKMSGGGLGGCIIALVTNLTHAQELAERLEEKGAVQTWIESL
Experimental: FIG. 8. Initial substrate results [analogue] ranged from 2.0-2.5 mM, except #6 (4.2 mM) and #8 (6.2 mM).
A series of compounds related to compounds 4, 5, 23, and 25 can be synthesized as potential competitive or noncompetitive reversible inhibitors of MK and DPM-DC (See, e.g., FIGS. 6-7). The representative synthesis shown (Scheme 4a) is a modification of that shown in Scheme 4, and R is limited only by availability of the corresponding reagent and synthetic technique, as would be understood by those skilled in the art made aware of this invention (e.g., alkyl, vinyl, acetylenyl, aryl, heteroaryl, etc., via Grignard reaction with the corresponding magnesium bromide or chloride).

MK = conditions: producing 6-fluoroDPM; cited from earlier work
DPM-DC [10] = target: T4, DPM-DC; conditions: cited from earlier work
PMK = conditions: producing 6-fluoroDPM; cited from earlier work
[11] = system: incorporation of mevalonate into nonsaponifiable lipids; conditions: rat liver extracts; relative to F3-mev; cited from earlier work

T1 sequence (Q03426 whole entry): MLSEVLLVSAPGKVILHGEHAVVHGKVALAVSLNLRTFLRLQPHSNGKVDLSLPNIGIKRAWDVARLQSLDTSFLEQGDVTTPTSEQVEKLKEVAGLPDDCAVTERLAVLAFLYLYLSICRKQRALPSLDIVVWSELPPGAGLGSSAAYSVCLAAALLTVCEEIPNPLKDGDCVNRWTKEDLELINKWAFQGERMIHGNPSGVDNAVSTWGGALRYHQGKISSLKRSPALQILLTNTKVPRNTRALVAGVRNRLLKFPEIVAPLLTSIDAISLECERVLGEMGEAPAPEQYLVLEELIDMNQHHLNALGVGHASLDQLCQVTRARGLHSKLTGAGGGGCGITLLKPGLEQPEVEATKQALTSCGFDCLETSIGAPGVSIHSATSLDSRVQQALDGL
Chain of DPM-DC (Streptococcus pneumoniae, UniProt Q9FD53) (Q9FD53 entry or part of it): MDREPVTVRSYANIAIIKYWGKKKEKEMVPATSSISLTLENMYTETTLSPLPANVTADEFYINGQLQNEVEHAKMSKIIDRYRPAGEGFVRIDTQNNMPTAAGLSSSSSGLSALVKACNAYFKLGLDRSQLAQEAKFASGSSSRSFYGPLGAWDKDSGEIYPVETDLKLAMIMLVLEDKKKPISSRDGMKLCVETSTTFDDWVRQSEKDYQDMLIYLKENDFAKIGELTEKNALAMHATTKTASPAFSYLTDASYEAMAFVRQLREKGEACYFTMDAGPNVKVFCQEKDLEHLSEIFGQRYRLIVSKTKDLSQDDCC

Q: With `C[C@@](O)(CCOP(=O)(O)OP(=O)(O)O)CC(=O)O` [DPM, Diphosphomevalonate] as the compound, how does the “effect of DPM on human MK” value (human mevalonate kinase [1]) read?
A: Its value is “virtually unaffected; also recorded: insensitive”.

Q: What about the Kd (mevalonate kinase (MK) [2]; Kd DPM, quoted for the NMR titration of MK) of the same compound?
A: Its Kd is 500 nM.

Q: And the Kd (mevalonate kinase (MK) [2]; affinity of DPM for apo (E) form of the enzyme, apo (E))?
A: Its Kd is 630 nM.

Q: What about the Kd (mevalonate kinase (MK) [2]; affinity of DPM for ternary (E.AMPPNP.mev) form of the enzyme, ternary (E.AMPPNP.mev)) of the same compound?
A: The Kd was 530 nM.

Q: What about the binding stoichiometry (mevalonate kinase (MK) [2]; enzyme is a dimer) of the same compound?
A: Its binding stoichiometry is 0.5 DPM/active site.

Q: And the “effect of DPM on human mevalonate kinase isozyme” value (human mevalonate kinase [3])?
A: The value was “not affected”.

Q: And the Km [4]?
A: The Km was 15 µM.

Q: And the Kd (DPM-DC [5])?
A: Its Kd is 540 nM.

Q: And the “change in the intrinsic fluorescence of DPM-DC” value (DPM-DC [5]; on binding of DPM)?
A: Its value is 1.5 fold.

Q: What about the Ki (mevalonate kinase (MK) [6]) of the same compound?
A: Its Ki is 500 nM.

Q: And the “turnover reduced to” value (mevalonate kinase (MK) [6]; DPM bound to MK)?
A: Its value is “less than 0.5%”.

Q: What about the “inhibition mechanism (initial-rate study)” value (mevalonate kinase (MK) [6]; vs substrates) of the same compound?
A: The value was “noncompetitively”.

Q: And the Ki (mevalonate kinase (MK) [7])?
A: The Ki was 400 nM.

Q: What does the source list for `O=C(O)CC(O)(CCOP(=O)(O)OP(=O)(O)O)C(F)(F)F` (stereo not drawn) [F3-DPM]?
A: Ki (DPM-DC [8]): 50 nM; Ki (mevalonate kinase (MK) [6]; MK from S. pneumoniae, read-out: Ki (MK)): 570 nM; Ki (rat liver DPM-DC; rat liver): 500 nM

Q: Which Km ([4]; read-out: Km) does the source give for `CCC(O)(CCOP(=O)(O)OP(=O)(O)O)CC(=O)O` (stereo not drawn) [compound 14] here?
A: The Km was 33 µM.

Q: And the “kcat relative to DPM” value ([4]; that of DPM)?
A: The value was 32%.

Q: With `O=C(O)CC(O)(CCO)C(F)(F)F` (stereo not drawn) [linear form of F3-mev, 6,6,6-trifluoromevalonate] as the compound, how does the “effect on viability (growth on plates)” value [9] read?
A: Its value is “little effect”.

Q: Which kcat (mevalonate kinase) does the source give for `CC(O)(CCO)CC(=O)O` (stereo not drawn) [mevalonate] here?
A: Its kcat is 227 s^1.

Q: Which results are given for `O=C(O)CC(O)(CF)CCO` (stereo not drawn) [mono-fluoro derivative, 6-Fluoromevalonic acid]?
A: substrate for MK (in words) (MK): substrate; decrease in turnover (DPM-DC [10]; mono-fluoro substitution at C6): 2500 fold; turnover (DPM-DC [10]; substrate of DPM-DC): 0.19 min⁻¹; turnover relative to the native compound (DPM-DC [10]; vs DPM): 0.04%; substrate for PMK (in words) (PMK): substrate; more effective than F3-mev in inhibiting incorporation of mevalonate into nonsaponifiable lipids [11]: 50 times; better inhibitor of DPM-DC (relative to F3 analogue) (rat liver DPM-DC; rat liver extracts): 50 fold
